Test results published in patent US11014929B2, “Pyrazolopyrimidine compounds and uses thereof” (Incyte Corporation, priority 2016, dated 2021).
pKi: −log10 of the molar value.

Target: HPK1 (Homo sapiens (Human), UniProt Q92918)
Assay: HPK1 Kinase Binding Assay
Settings: LanthaScreen tracer 222 binding, active HPK1, one hour incubation at 25° C.
Summary of the method: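 Active HPK1 (added as 4 nM solution) was combined with compound (3-fold, 11-point series) and tracer 222 (18 nM) plus Eu-anti-GST antibody (4 nM) in 50 mM HEPES pH 7.5 with MgCl2 and DTT. After 1 h at 25 °C plates were read. Ki values were derived.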

Chain of HPK1 (Q92918 1-346): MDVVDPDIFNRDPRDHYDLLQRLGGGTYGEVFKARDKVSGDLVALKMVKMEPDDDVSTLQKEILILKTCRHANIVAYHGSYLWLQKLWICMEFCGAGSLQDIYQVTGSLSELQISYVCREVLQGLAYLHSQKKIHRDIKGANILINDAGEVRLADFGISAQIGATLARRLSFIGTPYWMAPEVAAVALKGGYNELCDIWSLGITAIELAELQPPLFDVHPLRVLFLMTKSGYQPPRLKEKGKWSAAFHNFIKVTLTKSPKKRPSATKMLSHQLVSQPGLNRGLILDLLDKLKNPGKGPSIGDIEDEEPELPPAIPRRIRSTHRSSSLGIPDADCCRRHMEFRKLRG

pKi | Structure (SMILES)
≥ 7.00 | COc1ccncc1-c1ncc2[nH]nc(-c3ccc(N4CCN(C)CC4)nc3)c2n1 [Example 103, 5-(4-Methoxypyridin-3-yl)-3-(6-(4-methylpiperazin-1-yl)pyridin-3-yl)-1H-pyrazolo[4,3-d]pyrimidine]
≥ 7.00 | CN1CCN(Cc2ccc(-c3n[nH]c4cnc(-c5c(F)ccc6c5CCNC6)nc34)cc2)CC1 [Example 106, 6-Fluoro-5-(3-(4-((4-methylpiperazin-1-yl)methyl)phenyl)-1H-pyrazolo[4,3-d]pyrimidin-5-yl)-1,2,3,4-tetrahydroisoquinoline]
≥ 7.00 | Cc1c2c(cc(F)c1-c1ncc3[nH]nc(-c4ccnc(N5CCN(C)CC5)c4)c3n1)CCNC2 [Example 107, 6-Fluoro-8-methyl-7-(3-(2-(4-methylpiperazin-1-yl)pyridin-4-yl)-1H-pyrazolo[4,3-d]pyrimidin-5-yl)-1,2,3,4-tetrahydroisoquinoline]
≥ 7.00 | Cc1c2c(cc(F)c1-c1ncc3[nH]nc(-c4ccc(N5CCOCC5)nc4)c3n1)CCNC2 [Example 109, 4-(5-(5-(6-Fluoro-8-methyl-1,2,3,4-tetrahydroisoquinolin-7-yl)-1H-pyrazolo[4,3-d]pyrimidin-3-yl)pyridin-2-yl)morpholine]
≥ 7.00 | Cc1c2c(cc(F)c1-c1ncc3[nH]nc(-c4ccc(N5CCN(C)CC5)nc4)c3n1)CCNC2 [Example 110, 6-Fluoro-8-methyl-7-(3-(6-(4-methylpiperazin-1-yl)pyridin-3-yl)-1H-pyrazolo[4,3-d]pyrimidin-5-yl)-1,2,3,4-tetrahydroisoquinoline]
≥ 7.00 | Cc1c2c(cc(F)c1-c1ncc3[nH]nc(-c4ccc(N5CCN(C)CC5)cc4)c3n1)CCNC2 [Example 111, 6-Fluoro-8-methyl-7-(3-(4-(4-methylpiperazin-1-yl)phenyl)-1H-pyrazolo[4,3-d]pyrimidin-5-yl)-1,2,3,4-tetrahydroisoquinoline]
≥ 7.00 | Cc1cc2c(c(F)c1-c1ncc3[nH]nc(-c4ccc(N5CCN(C)CC5)nc4)c3n1)CNCC2 [Example 112, 8-Fluoro-6-methyl-7-(3-(6-(4-methylpiperazin-1-yl)pyridin-3-yl)-1H-pyrazolo[4,3-d]pyrimidin-5-yl)-1,2,3,4-tetrahydroisoquinoline]
≥ 7.00 | CNC1CCc2c1cc(F)c(-c1ncc3[nH]nc(-c4ccc(N5CCOCC5)nc4)c3n1)c2F (stereo not shown) [Example 113, 4,6-Difluoro-N-methyl-5-(3-(6-morpholinopyridin-3-yl)-1H-pyrazolo[4,3-d]pyrimidin-5-yl)-2,3-dihydro-1H-inden-1-amine]
≥ 7.00 | CNC1CCc2c1cc(F)c(-c1ncc3[nH]nc(-c4cnc(N5CCN(C)CC5)nc4)c3n1)c2F (stereo not shown) [Example 114, 4,6-Difluoro-N-methyl-5-(3-(2-(4-methylpiperazin-1-yl)pyrimidin-5-yl)-1H-pyrazolo[4,3-d]pyrimidin-5-yl)-2,3-dihydro-1H-inden-1-amine]
≥ 7.00 | CNC1CCc2cc(F)c(-c3ncc4[nH]nc(-c5ccc(N6CCOCC6)nc5)c4n3)c(F)c2C1 (stereo not shown) [Example 115, 6,8-Difluoro-N-methyl-7-(3-(6-morpholinopyridin-3-yl)-1H-pyrazolo[4,3-d]pyrimidin-5-yl)-1,2,3,4-tetrahydronaphthalen-2-amine]
≥ 7.00 | CNC1CCCc2c1cc(F)c(-c1ncc3[nH]nc(-c4ccc(N5CCOCC5)nc4)c3n1)c2F (stereo not shown) [Example 116, 5,7-Difluoro-N-methyl-6-(3-(6-morpholinopyridin-3-yl)-1H-pyrazolo[4,3-d]pyrimidin-5-yl)-1,2,3,4-tetrahydronaphthalen-1-amine]
≥ 7.00 | NC1CCCc2c1cc(F)c(-c1ncc3[nH]nc(-c4ccc(N5CCOCC5)nc4)c3n1)c2F (stereo not shown) [Example 117, 5,7-Difluoro-6-(3-(6-morpholinopyridin-3-yl)-1H-pyrazolo[4,3-d]pyrimidin-5-yl)-1,2,3,4-tetrahydronaphthalen-1-amine]
≥ 7.00 | CNC1CCCc2c1ccc(F)c2-c1ncc2[nH]nc(-c3ccc(N4CCN(C)CC4)nc3)c2n1 (stereo not shown) [Example 120, 6-Fluoro-N-methyl-5-(3-(6-(4-methylpiperazin-1-yl)pyridin-3-yl)-1H-pyrazolo[4,3-d]pyrimidin-5-yl)-1,2,3,4-tetrahydronaphthalen-1-amine]
≥ 7.00 | CN1CCN(c2ccc(-c3n[nH]c4cnc(-c5c(F)ccc6c5CCCC6N)nc34)cc2)CC1 (stereo not shown) [Example 121, 6-Fluoro-5-(3-(4-(4-methylpiperazin-1-yl)phenyl)-1H-pyrazolo[4,3-d]pyrimidin-5-yl)-1,2,3,4-tetrahydronaphthalen-1-amine]

The next lines start with the compound.

Structure (SMILES) | pKi
CN1CCN(c2ccc(-c3n[nH]c4cnc(-c5ccc6cccnc6c5F)nc34)cc2)CC1 [Example 101, 8-Fluoro-7-(3-(4-(4-methylpiperazin-1-yl)phenyl)-1H-pyrazolo[4,3-d]pyrimidin-5-yl)quinoline] | ≥ 7.00
COc1ccncc1-c1ncc2[nH]nc(-c3ccc(N4CCN(C)CC4)cc3)c2n1 [Example 102, 5-(4-Methoxypyridin-3-yl)-3-(4-(4-methylpiperazin-1-yl)phenyl)-1H-pyrazolo[4,3-d]pyrimidine] | ≥ 7.00
CNCc1cc(C)c(-c2ncc3[nH]nc(-c4ccc(N5CCN(C)CC5)cc4)c3n2)cn1 [Example 104, N-Methyl-1-(4-methyl-5-(3-(4-(4-methylpiperazin-1-yl)phenyl)-1H-pyrazolo[4,3-d]pyrimidin-5-yl)pyridin-2-yl)methanamine] | ≥ 7.00
CC(=O)N1CCN(c2ccc(-c3n[nH]c4cnc(-c5c(F)cc6c(c5C)CNCC6)nc34)cc2)CC1 [Example 108, 1-(4-(4-(5-(6-Fluoro-8-methyl-1,2,3,4-tetrahydroisoquinolin-7-yl)-1H-pyrazolo[4,3-d]pyrimidin-3-yl)phenyl)piperazin-1-yl)ethanone] | ≥ 7.00
NC1CCc2cc(F)c(-c3ncc4[nH]nc(-c5ccc(N6CCOCC6)nc5)c4n3)c(F)c21 (stereo not shown) [Example 118, 5,7-Difluoro-6-(3-(6-morpholinopyridin-3-yl)-1H-pyrazolo[4,3-d]pyrimidin-5-yl)-2,3-dihydro-1H-inden-1-amine] | ≥ 7.00
COc1c(-c2ncc3[nH]nc(-c4ccc(N5CCOCC5)nc4)c3n2)c(F)cc2c1C(N)CC2 (stereo not shown) [Example 119, 5-Fluoro-7-methoxy-6-(3-(6-morpholinopyridin-3-yl)-1H-pyrazolo[4,3-d]pyrimidin-5-yl)-2,3-dihydro-1H-inden-1-amine] | ≥ 7.00
CNCc1cc(F)c(-c2ncc3[nH]nc(-c4ccc(N5CCC(C)(O)CC5)nc4)c3n2)c(F)c1 [Example 122, 1-(5-(5-(2,6-Difluoro-4-((methylamino)methyl)phenyl)-1H-pyrazolo[4,3-d]pyrimidin-3-yl)pyridin-2-yl)-4-methylpiperidin-4-ol] | ≥ 7.00
CNCc1cc(F)c(-c2ncc3[nH]nc(-c4ccc(N5CCN(CCOC)CC5)cc4)c3n2)c(F)c1 [Example 123, 1-(3,5-Difluoro-4-(3-(4-(4-(2-methoxyethyl)piperazin-1-yl)phenyl)-1H-pyrazolo[4,3-d]pyrimidin-5-yl)phenyl)-N-methylmethanamine] | ≥ 7.00
CCN1CCN(c2ccc(-c3n[nH]c4cnc(-c5c(F)cc(CNC)cc5C(F)(F)F)nc34)cc2)CC1 [Example 124, 1-(4-(3-(4-(4-Ethylpiperazin-1-yl)phenyl)-1H-pyrazolo[4,3-d]pyrimidin-5-yl)-3-fluoro-5-(trifluoromethyl)phenyl)-N-methylmethanamine] | ≥ 7.00
CCN1CCN(c2ccc(-c3n[nH]c4cnc(-c5c(C)cc(C6CCCCN6)cc5F)nc34)cc2)CC1 (stereo not shown) [Example 125, 3-(4-(4-Ethylpiperazin-1-yl)phenyl)-5-(2-fluoro-6-methyl-4-(piperidin-2-yl)phenyl)-1H-pyrazolo[4,3-d]pyrimidine] | ≥ 7.00
CNCc1cc(F)c(-c2ncc3[nH]nc(-c4ccc(N5CCO[C@@H](COC)C5)nc4)c3n2)c(C(F)(F)F)c1 [Example 126, (R)-1-(3-Fluoro-4-(3-(6-(2-(methoxymethyl)morpholino)pyridin-3-yl)-1H-pyrazolo[4,3-d]pyrimidin-5-yl)-5-(trifluoromethyl)phenyl)-N-methylmethanamine] | ≥ 7.00
